≈ marks a conversion by molar mass, not a printed value. Where “and” joins values, the source holds several entries; their conditions need not be identical. Equal entries are not always repeated.
Legend:
S. Aureus = assay: MIC, S. Aureus; assay type: cell-based; settings: for MIC: Staphylococcus aureus
Method: (§1) The MIC assays are carried out in 150 μL volume in duplicate in 96-well clear flat-bottom plates. The bacterial suspension from an overnight culture growth in appropriate medium is added to a solution of test compound in 4% DMSO in water. Final bacterial inoculum is approximately 10^5-10^6 CFU/well. […] Both ampicillin and tetracycline are used as antibiotic-positive controls in each screening assay for S. pyogenes, E. coli imp-, E. coli, S. aureus, E. faecalis, K. pneumoniae and P. vulgaris. Ciprofloxacin is used as an antibiotic positive control in each screening assay for P. aeruginosa.

E. Coli = assay: MIC, E. Coli; assay type: cell-based; settings: for MIC: Escherichia coli
Method: as §1

SMILES	MIC S. Aureus (S. Aureus; Example 109)	MIC E. Coli. (E. Coli; Example 109)	MIC S. Aureus (S. Aureus; Example 107)	MIC E. Coli. (E. Coli; Example 107)	other results
COc1ccc(CCNCC2OC(OC3C(N)CC(N)C(O)C3OC3OC(CO)C(OC4OC(CN)C(O)C(O)C4N)C3O)C(N)C(O)C2O)cc1 (stereo not drawn) [Compound 15r]	0.3 to 0.6 µM	1.3 to 2.5 µM	–	–	–
COc1ccccc1CCNCC1OC(OC2C(N)CC(N)C(O)C2OC2OC(CO)C(OC3OC(CN)C(O)C(O)C3N)C2O)C(N)C(O)C1O (stereo not drawn) [Compound 15n]	0.2 to 0.3 µM and 0.3 to 0.6 µM	–	–	–	–
NCC1OC(OC2C(CO)OC(OC3C(O)C(N)CC(N)C3OC3OC(CN4CCC5CCCCC54)C(O)C(O)C3N)C2O)C(N)C(O)C1O (stereo not drawn) [Compound 15s]	0.3 to 0.6 µM	1.3 to 2.5 µM	–	–	–
CN(CCc1ccccc1)CC1OC(OC2C(N)CC(N)C(O)C2OC2OC(CO)C(OC3OC(CN)C(O)C(O)C3N)C2O)C(N)C(O)C1O (stereo not drawn) [Compound 15k]	0.3 to 0.6 µM	2.5-5^ uM	–	–	–
NC[C@@H]1O[C@H](O[C@H]2[C@@H](OCCOCCCC3CCCCC3)[C@H](O[C@@H]3[C@@H](O)[C@H](N)C[C@H](N)[C@H]3O[C@H]3O[C@H](CO)[C@@H](O)[C@H](O)[C@H]3N)O[C@@H]2CO)[C@H](N)[C@@H](O)[C@@H]1O [Compound 12b]	–	–	–	–	MIC (S. Aureus; Example 107): 5 to 10 µM (≈ 3.92 to 7.84 µg/mL); MIC (E. Coli; Example 107): 20 to 40 µM (≈ 15.7 to 31.4 µg/mL)
Cc1ccc(CCNCC2OC(OC3C(N)CC(N)C(O)C3OC3OC(CO)C(OC4OC(CN)C(O)C(O)C4N)C3O)C(N)C(O)C2O)cc1 (stereo not drawn) [Compound 15g]	0.6 to 1.2 µM	2.5-5^ uM	–	–	–
NCC1OC(OC2C(CO)OC(OC3C(O)C(N)CC(N)C3OC3OC(CO)C(O)C(O)C3N)C2OCCNCCc2cc(C(F)(F)F)cc(C(F)(F)F)c2)C(N)C(O)C1O (stereo not drawn) [Compound 9af]	–	–	2.5-5^ uM	>10 µM	–
NC[C@@H]1O[C@H](O[C@H]2[C@@H](OCCCc3ccccc3)[C@H](O[C@@H]3[C@@H](O)[C@H](N)C[C@H](N)[C@H]3O[C@H]3O[C@H](CO)[C@@H](O)[C@H](O)[C@H]3N)O[C@@H]2CO)[C@H](N)[C@@H](O)[C@@H]1O [Compound 14b]	–	–	–	–	MIC (S. Aureus; Example 107): 3 to 5 µM (≈ 2.2 to 3.67 µg/mL); MIC (E. Coli; Example 107): 20 to 40 µM (≈ 14.7 to 29.4 µg/mL)
NCC1OC(OC2C(CO)OC(OC3C(O)C(N)CC(N)C3OC3OC(CO)C(O)C(O)C3N)C2OCCNCCc2ccc(C(F)(F)F)cc2)C(N)C(O)C1O (stereo not drawn) [Compound 9ah]	–	–	0.6 to 1.2 µM	5 to 10 µM	–
NCC1OC(OC2C(CO)OC(OC3C(O)C(N)CC(N)C3OC3OC(CO)C(O)C(O)C3N)C2OCCNCCC2CC3CCC2C3)C(N)C(O)C1O (stereo not drawn) [Compound 9ab]	–	–	5 to 10 µM	>10 µM	–
NCC1OC(OC2C(CO)OC(OC3C(O)C(N)CC(N)C3OC3OC(CNCCc4ccc(C5CCCCC5)cc4)C(O)C(O)C3N)C2O)C(N)C(O)C1O (stereo not drawn) [Compound 15m]	0.3 to 0.6 µM	1.3 to 2.5 µM	–	–	–
NC1CC(N)C(OC2OC(CO)C(O)C(O)C2N)C(OC2OC(CO)C(O)C2OCCNCCc2ccccc2)C1O (stereo not drawn) [Compound 30c]	–	–	12 to 25 µM	>100 µM	–
NCC1OC(OC2C(CO)OC(OC3C(O)C(N)CC(N)C3OC3OC(CNCCc4ccc(C(F)(F)F)cc4)C(O)C(O)C3N)C2O)C(N)C(O)C1O (stereo not drawn) [Compound 15q]	0.3 to 0.6 µM	1.3 to 2.5 µM	–	–	–
NCC1OC(OC2C(CO)OC(OC3C(O)C(N)CC(N)C3OC3OC(CO)C(O)C(O)C3N)C2OCCNC2CCCc3ccccc32)C(N)C(O)C1O (stereo not drawn) [Compound 9ac]	–	–	1.3 to 2.5 µM	>10 µM	–

— patent US8569264B2, “Antibacterial 4,5-substituted aminoglycoside analogs having multiple substituents” (ISIS Pharmaceuticals, Inc., priority 2005, dated 2013)
